Results as given in PMC7961521 (2021).

Key:
[1] = test system: 4G (DNA, G4) AGGGTTAGGGTTAGGGTTAGGGTTACCTAGGCATCCTCCAGTTCCTGGAGTCAGTG; experiment: fluorescence Job's plot; settings: 100 mM KCl; 1×PBS pH 7.4, 37 °C; total concentration 5 µM
[2] = test system: RG4 (RNA, G4) AAGGAAGGGGAAGUCAGGUGGGGCCUGGGGAACCAGGAAGCGGGGAACAGG; experiment: fluorescence Job's plot; settings: 100 mM KCl; 1×PBS pH 7.4, 37 °C; total concentration 5 µM
[3] = test system: 3G template annealed to primer P31 (DNA, G4) TTAGGGTTAGGGTTAGGGTTACCTAGGCATCCTCCAGTTCCTGGAGTCAGTG/CACTGACTCCAGGAACTGGAGGATGCCTAGG; experiment: Taq polymerase stop assay; settings: 100 mM KCl, Mg2+; Tris-HCl pH 8.0; 0 to 100 µM ligand; extension at 40 °C
[4] = test system: 4G template annealed to primer P31 (DNA, G4) AGGGTTAGGGTTAGGGTTAGGGTTACCTAGGCATCCTCCAGTTCCTGGAGTCAGTG/CACTGACTCCAGGAACTGGAGGATGCCTAGG; experiment: Taq polymerase stop assay; settings: 100 mM KCl, Mg2+; Tris-HCl pH 8.0; 0 to 100 µM ligand; extension at 40 °C
[5] = test system: H50 template annealed to primer H50/c49 (DNA, G4) AGGGTTAGGGTTAGGGTTAGGGGCCACCGCAATTGCTATAGTGAGTCGT/ACGACTCACTATAGCAATTGCG; experiment: Taq polymerase stop assay; settings: 100 mM KCl, Mg2+; Tris-HCl pH 8.0; extension at 40 °C
[6] = test system: c49 (C49) template annealed to primer H50/c49 (DNA, G4) TGAGGGTGGGGAGGGTGGGGAAGCCACCGCAATTGCTATAGTGAGTCGT/ACGACTCACTATAGCAATTGCG; experiment: Taq polymerase stop assay; settings: 100 mM KCl, Mg2+; Tris-HCl pH 8.0; extension at 50 °C
[7] = test system: 3G (DNA, G4) TTAGGGTTAGGGTTAGGGTTACCTAGGCATCCTCCAGTTCCTGGAGTCAGTG; experiment: fluorescence, reporter dye in displacement assay; settings: 100 mM KCl; 10 mM Tris-HCl pH 7.2; dye 1 µM, DNA 0.5 µM
[8] = test system: 4G (DNA, G4) AGGGTTAGGGTTAGGGTTAGGGTTACCTAGGCATCCTCCAGTTCCTGGAGTCAGTG; experiment: fluorescence, reporter dye in displacement assay; settings: 100 mM KCl; 10 mM Tris-HCl pH 7.2; dye 1 µM, DNA 0.5 µM
[9] = test system: 3G (DNA, G4) TTAGGGTTAGGGTTAGGGTTACCTAGGCATCCTCCAGTTCCTGGAGTCAGTG; experiment: fluorescent dye displacement; settings: 100 mM KCl; 10 mM Tris-HCl pH 7.2; B6,5 1 µM displaced; 0.5 µM nucleic acid
[10] = test system: 4G (DNA, G4) AGGGTTAGGGTTAGGGTTAGGGTTACCTAGGCATCCTCCAGTTCCTGGAGTCAGTG; experiment: fluorescent dye displacement; settings: 100 mM KCl; 10 mM Tris-HCl pH 7.2; B6,5 1 µM displaced; 0.5 µM nucleic acid
[11] = test system: RG4 (RNA, G4) AAGGAAGGGGAAGUCAGGUGGGGCCUGGGGAACCAGGAAGCGGGGAACAGG; experiment: fluorescent dye displacement; settings: 100 mM KCl; 10 mM Tris-HCl pH 7.2; B6,5 1 µM displaced; 0.5 µM nucleic acid; 1 equivalent of ligand

binding [7]	binding [9]	binding [10]	% displacement of B6,5 [11] [%]	Compound	further results
yes	–	–	–	C1=C2Sc3ccccc3N2CCCCCCN2C(=C/C=C/C=C/c3sc4ccccc4[n+]3CCCCCC[n+]3c(sc4ccccc43)/C=C/C=C/1)Sc1ccccc12	binding [1]: yes; binding [2]: yes; binding [3]: yes; binding [4]: yes; binding [5]: yes; binding [6]: yes
yes	–	–	–	CN1C(=Cc2cc[n+](C)c3ccccc23)Sc2ccccc21	binding [8]: yes
–	yes	yes	> 60	CN1CCC[C@H]1CCNC(=O)c1cn2c3c(c(N4CCC(c5cnccn5)C4)c(F)cc3c1=O)Oc1cc3ccccc3cc1-2 (some centres unmarked)	–
–	yes	yes	> 60	C[n+]1ccc(-c2c3nc(c(-c4cc[n+](C)cc4)c4ccc([nH]4)c(-c4cc[n+](C)cc4)c4nc(c(-c5cc[n+](C)cc5)c5ccc2[nH]5)C=C4)C=C3)cc1	–
–	weak	yes	–	O=C(/C=C/C=C/c1ccc2c(c1)OCO2)N1CCCCC1	–
–	weak	yes	> 60	O=C(c1cc(Cc2n[nH]c(=O)c3ccccc23)ccc1F)N1CCN(C(=O)C2CC2)CC1	–
